Results from US10912767B2, “Anthracycline prodrugs and methods of making and using the same” (THE REGENTS OF THE UNIVERSITY OF COLORADO, priority 2015, dated 2021).
Like-named read-outs stand apart in the source and are kept apart here. Non-standard residues stand in square brackets, D forms with d. Residues, ends and D or L forms follow the SMILES beside them. *: point of attachment. X1 = COc1cc(C(C)OC(=O)N2CO[C@@H]3[C@H](C)OC(OC4CC(O)(C(=O)CO)Cc5c(O)c6c(c(O)c54)C(=O)c4c(OC)cccc4C6=O)C[C@@H]32)c([N+](=O)[O-])cc1OCC(=O)NCCOCCOCCOCCn1nnc2c1-c1ccccc1CN(C(=O)CCNC(=O)CCN1C(=O)CC(*)C1=O)c1ccccc1-2; Mpa = O=C(O)CCS

Columns and labels:
[1] = Photolysis timecourses, near UV blacklight 350 nm, HPLC; format: physicochemical; details: for k in ACN: H2O, relative rate constant for photocleavage / k in PBS, relative rate constant for photocleavage: 100 μM, near UV 350 nm; for k in ACN: H2O, relative rate constant for photocleavage / k in ACN: H2O, fold over photodoxazolidine: 1:1 acetonitrile:water; for photochemical reaction, fold faster than photodoxazolidine: both solvents
Excerpt: (§1) In order to investigate the photolysis of the drugs in a system amenable to cell culture use, a custom UV irradiation apparatus was constructed, consisting of 3 small blacklight fluorescent bulbs (Southern New England Ultraviolet Co., λmax=350 nm) set between two ring stands and suspended at a height of 11.5 cm. The bulbs' housing was reflective aluminum so as to direct as much UV irradiation as possible downward toward the plate. Upon installation in sterile cell culture hood, the power of the system was measured at approximately 6-7 mW using a Scientech laser power meter. Prior to experimentation, the hood and irradiation apparatus was sterilized with 254 nm germicidal UV irradiation overnight. Using this setup, 100 μM of 4,5-dimethoxy-2-nitrobenyl alcohol (DMNA), photodoxazolidine R═H, and glucose-PEG-photodoxazoldine were irradiated in individual wells of a 24-well plate. Initially, 50 μL of a DMSO stock was diluted with 950 μL of PBS and aliquots of 50 μL were removed at various times (0-180 min), mixing by pipetting each time. The timepoints were analyzed by HPLC (method 2) and plotted as fractional conversion versus time. […] Therefore, a second experiment was performed in which the PBS was replaced with 1:1 acetonitrile:water. With this system of 5% DMSO/47.5% acetonitrile/47.5% water, no visible precipitation was produced over the course of the reaction.
The measured quantum yield of 0.002 for photodoxazolidine R═H (above) was lower than expected, which raised the possibility that the presence of the anthraquinone ring complex in the prodrugs was inhibiting photocleavage by quenching the activated state. To test whether this, the irradiation kinetics of DMNA (4, 5-dimethoxy-2-nitrobenzyl alcohol) was compared against photodoxazolidine R═H, which contains the DMNA unit as the photoactivating group. Additionally, glucose-PEG-photodoxazoldine was included for comparison; a synthetic precursor to this compound, azido-PEG-photodoxazolidine, is suspected of having a quantum yield of 0.01-0.02, which is 5-10-fold larger than photodoxazolidine. Irradiation was performed in 24-well cell culture dishes using the cell culture irradiation system described above with the soft-glass high-pass filter. […] In both cases, photodoxazolidine was the slowest to produce dox from the irradiation. In line with its quantum yield, glucose-PEG-photodoxazolidine reacted 4-5-fold faster than photodoxazolidine. However, DMNA was by far the fastest to undergo photochemistry in this system, converting to product approximately 30-fold faster than photodoxazolidine.

[2] = tested on: MDA-MB-231 human breast cancer cells; assay: cells; format: cell-based
Protocol: The breast carcinoma line MDA-MB-231 was cultured in Minimum Essential Media (MEM) supplemented with 10% of fetal bovine serum (FBS), 100 units/mL of penicillin and 100 μg/mL of streptomycin, and 1 mM of sodium pyruvate. The cells were incubated at 37° C. in an atmosphere of 95% air and 5% CO2.
The cells were seeded to 96-well plates at a density of 1000 cells/well and allowed to adhere overnight. The prodrugs with various concentrations in MEM were added and the cells were incubated at 37° C. for 24 h. After the media was removed, the cells were washed with PBS two times. The cells in PBS (50 μL) were irradiated for 15 min, followed by incubating at room temperature for 30 min. The PBS was replaced with fresh media and the cells were grown until the no-drug control reached 80% confluency, or 5 days. Cell density was measured by crystal violet staining.
The membrane permeability of the photoactivated prodrugs and their cellular uptake by MDA-MB-231 human breast cancer cells were each monitored by fluorescence microscopy. After the cells were grown with the prodrugs for 24 h, they were washed with PBS two times to remove the prodrugs that remained outside of the cells. The cellular uptake of 10 μM glucose-photodoxazolidine and glucose-PEG-photodoxazolidine was monitored with the fluorescence of the anthraquinone fluorophore. The prodrugs were then activated inside of the cells by black lamp UV irradiation (maximum intensity at 350 nm) for 15 min. […] This drastic change of cytotoxicity presumably arises from membrane permeability of MARCKS-ED peptide and possibly some phototoxicity from longer irradiation time.

[3] = tested on: MDA-MB-231 breast cancer cells; assay: Tumor cell growth inhibition, crystal violet (Example 2); format: cell-based, human; details: Homo sapiens, read-out: IC50
Excerpt: as §1
The ovarian carcinoma line NCl/ADR-RES (ADR) was grown in high-glucose Dulbecco's Modified Eagle Medium (DMEM) supplemented with 10% fetal bovine serum (FBS), 200 units/mL of penicillin and 200 μg/mL of streptomycin. The breast carcinoma line MDA-MB-231 was cultured in low-glucose DMEM with the same additives. Both lines were maintained in a humidified incubator with 5% CO2/95% air at 37° C. UV irradiations were performed with the apparatus described above.
Growth inhibition experiments were performed by seeding cells into 96-well plates or 24-well plates at densities of 1000-1500 cells per well or 8000 cells per well, respectively, and allowing the cells to adhere overnight. The media was then replaced with a range of aqueous concentrations of the drug in question and allowed to incubate at 37° C. with the cells for a span of time (Inc1) which ranged from 1 min to 48 hours. Irradiation was performed at room temperature with the plate's lid removed and ranged from 1 to 30 min. In some experiments, the drug solution was removed following Inc1 and irradiated in clean media or PBS. Following irradiation, the cells were placed back into the 37° C. incubator for a second period of incubation (Inc2), which varied between 1 min and 24 h, prior to replacement with fresh media. Plates which received no irradiation but identical treatment otherwise were done in parallel. The cells were then grown until the no-drug control wells reached approximately 80% confluence or 5 days, whichever was shorter. […] The cells were fixed with 5% formalin in PBS, stained with crystal violet, washed with tap water, and air-dried. The stain was resolubilized in 50% isopropyl alcohol, 50% H2O containing 2% (w/v) SDS. The staining density was read on a multiwell plate reader at 588-600 nm. Percentage cell density was calculated relative to the irradiated no-drug control wells, plotted as a function of drug concentration, and fit using non-linear least squared analysis with a variable-slope dose response model in GraphPad Prism 5.0 software.
Although the introduction of a long-pass glass filter between the light source and the plate alleviated this effect to a small extent, a maximum irradiation time of 10 min was settled upon. […] Since a media change at that point would remove the cells as well, the re-adherence of the cell population was accomplished by the addition of a large volume (200 μL) of complete media following Inc2, and overnight incubation. Then, a full media change was done to remove the drug. […]

Row | SMILES | k in ACN: H2O, relative rate constant for photocleavage [1] [min⁻¹] | k in PBS, relative rate constant for photocleavage [1] [min⁻¹] | k in ACN: H2O, fold over photodoxazolidine [1] | k in PBS, fold over photodoxazolidine [1] | photochemical reaction, fold faster than photodoxazolidine [1] | IC50 ([2]; light −, 24 h incubation, read-out: IC50) [nM] | IC50 ([3]; 10 min, MDA-MB-231, +UV 10 min, near UV 350 nm) [nM] | IC50 ([3]; MDA-MB-231, prodrug alone, no UV) [nM] | IC50 ([2]; Homo sapiens, MDA-MB-231, light +, 24 h incubation, 15 min UV, read-out: IC50) [nM] | IC50 ([2]; Homo sapiens, MDA-MB-231, light −, 24 h incubation, read-out: IC50) [nM] | IC50 ([2]; Homo sapiens, MDA-MB-231) [nM] | IC50 ([2]; Homo sapiens, MDA-MB-231, 24 h) [nM]
1 | COc1cc(CO)c([N+](=O)[O-])cc1OC [DMNA, 4,5-dimethoxy-2-nitrobenzylalcohol, reference compound] | 0.21 | 0.081 | (30) | (31) | approximately 30 fold | – | – | – | – | – | – | –
2 | COc1cc(C(C)OC(=O)N2CO[C@@H]3[C@H](C)OC(OC4CC(O)(C(=O)CO)Cc5c(O)c6c(c(O)c54)C(=O)c4c(OC)cccc4C6=O)C[C@@H]32)c([N+](=O)[O-])cc1OCC(=O)NCCOCCOCCOCCn1nnc2c1-c1ccccc1CN(C(=O)CCNC(=O)CCN1C(=O)CC(SCCC(=O)N[C@@H](CCCCN)C(=O)N[C@@H](CCCCN)C(=O)N[C@@H](CCCCN)C(=O)N[C@@H](CCCCN)C(=O)N[C@@H](CCCCN)C(=O)N[C@@H](CCCNC(=N)N)C(=O)N[C@@H](Cc3ccccc3)C(=O)N[C@@H](CO)C(=O)N[C@@H](Cc3ccccc3)C(=O)N[C@@H](CCCCN)C(=O)N[C@@H](CCCCN)C(=O)N[C@@H](CO)C(=O)N[C@@H](Cc3ccccc3)C(=O)N[C@@H](CCCCN)C(=O)N[C@@H](CC(C)C)C(=O)N[C@@H](CO)C(=O)NCC(=O)N[C@@H](Cc3ccccc3)C(=O)N[C@@H](CO)C(=O)N[C@@H](Cc3ccccc3)C(=O)N[C@@H](CCCCN)C(=O)N[C@@H](CCCCN)C(=O)N[C@@H](CC(N)=O)C(=O)N[C@@H](CCCCN)C(=O)N[C@@H](CCCCN)C(N)=O)C1=O)c1ccccc1-2 (some centres unmarked) [MARCKS-PEG-Photodoxazolidine] ([Mpa](X1)KKKKKRFSFKKSFKLSGFSFKKNKK-NH2) | – | – | – | – | – | 1300 | – | – | – | – | – | –
3 | COc1cc(C(C)OC(=O)N2COC3C(C)OC(OC4CC(O)(C(=O)CO)Cc5c(O)c6c(c(O)c54)C(=O)c4c(OC)cccc4C6=O)CC32)c([N+](=O)[O-])cc1OCC(=O)NCCOCCOCCOCCn1cc(CCC(=O)NC2C(O)OC(CO)C(O)C2O)nn1 (centres unmarked) [Glucose-PEG-photodoxazolidine] | 0.036 | 0.011 | (5.2) | (4.2) | 4-5 fold | – | 27 ± 2 | > 10000 | 750 | 2400 | – | –
4 | COc1cc(C(C)OC(=O)N2COC3C(C)OC(OC4CC(O)(C(=O)CO)Cc5c(O)c6c(c(O)c54)C(=O)c4c(OC)cccc4C6=O)CC32)c([N+](=O)[O-])cc1OCC(=O)NC1C(O)OC(CO)C(O)C1O (centres unmarked) [Glucose-Phtodoxazolidine] | – | – | – | – | – | – | – | – | – | – | 832 | 2080
